One test has as its system normal rats. In words: Novel Object Recognition (NOR) task. Format: in vivo, rat. The procedure: Episodic memory is a cognitive domain known to be impaired in Alzheimer's disease; the Novel Object Recognition task is a commonly used and quick, clean model used to assess potential cognitive benefit derived from the test compounds. Compound A (7,8,9,10-tetrahydro-6H-azepino[4,5-g]quinoxaline) improved long-term visual episodic/declarative memory as assessed by novel object recognition (NOR) task following oral dosing in normal rats. Memory was assessed by using the three-trial object recognition test. On the first day (exploratory trial), rats were allowed to explore an open arena (44.5×44.5×30.5 cm) for 6 min. On the second day (acquisition trial), rats were allowed to explore the same arena in the presence of two identical objects (both object A) for 3 minutes. On the third day (retention or recall trial), performance was evaluated by allowing the same animal to re-explore the arena for 3 minutes in the presence of two different objects: the familiar object A and a novel object B. An inter-trial interval of 24 hours was imposed between the three NOR trials. Recognition memory was assessed by comparing the time spent exploring a novel (object B) versus a familiar (object A) object during the recall trial. Recognition index was assessed for each animal and expressed as a ratio ((time B/time A+time B)×100).
Compound A was evaluated for its duration of effect in the NOR task in normal rats. Using similar experimental procedures as described earlier, 0.03, 0.1, and 0.3 mg/kg (0.15, 0.5 and 1.51 μmol/kg) Compound A was orally administered to animals 30 minutes prior to placement in the arena for the exploratory and acquisition trials. For the recall trial (i.e., third day of dosing), animals were placed in the arena at 6 h, post administration.
A follow-up NOR study evaluated the duration of effect of Compound A following a 6 h pre-treatment prior to the recall trial.

A further test deals with T1, Human α4β2 nAChR subtype (Homo sapiens, UniProt P17787+P43681).
T1 construct: expressed in transfected cells; host or cells: SH-EP1 clonal cells
T1 sequence (P43681 29-627 limits assumed): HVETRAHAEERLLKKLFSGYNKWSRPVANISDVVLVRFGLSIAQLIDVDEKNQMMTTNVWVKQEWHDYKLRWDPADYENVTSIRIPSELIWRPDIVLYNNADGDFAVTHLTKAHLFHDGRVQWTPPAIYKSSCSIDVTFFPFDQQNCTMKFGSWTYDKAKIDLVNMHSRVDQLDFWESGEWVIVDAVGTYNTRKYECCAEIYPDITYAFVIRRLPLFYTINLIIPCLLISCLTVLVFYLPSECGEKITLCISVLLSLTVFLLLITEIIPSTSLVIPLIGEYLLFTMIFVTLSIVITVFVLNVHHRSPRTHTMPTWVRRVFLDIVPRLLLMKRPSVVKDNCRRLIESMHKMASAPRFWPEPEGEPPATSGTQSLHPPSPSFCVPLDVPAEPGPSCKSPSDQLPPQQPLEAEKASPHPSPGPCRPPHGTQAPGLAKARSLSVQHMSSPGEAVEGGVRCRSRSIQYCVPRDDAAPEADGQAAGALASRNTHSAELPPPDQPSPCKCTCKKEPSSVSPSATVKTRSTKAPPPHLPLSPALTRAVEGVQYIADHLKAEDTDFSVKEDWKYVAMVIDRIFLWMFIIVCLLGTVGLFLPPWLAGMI
T1 sequence (P17787 26-502): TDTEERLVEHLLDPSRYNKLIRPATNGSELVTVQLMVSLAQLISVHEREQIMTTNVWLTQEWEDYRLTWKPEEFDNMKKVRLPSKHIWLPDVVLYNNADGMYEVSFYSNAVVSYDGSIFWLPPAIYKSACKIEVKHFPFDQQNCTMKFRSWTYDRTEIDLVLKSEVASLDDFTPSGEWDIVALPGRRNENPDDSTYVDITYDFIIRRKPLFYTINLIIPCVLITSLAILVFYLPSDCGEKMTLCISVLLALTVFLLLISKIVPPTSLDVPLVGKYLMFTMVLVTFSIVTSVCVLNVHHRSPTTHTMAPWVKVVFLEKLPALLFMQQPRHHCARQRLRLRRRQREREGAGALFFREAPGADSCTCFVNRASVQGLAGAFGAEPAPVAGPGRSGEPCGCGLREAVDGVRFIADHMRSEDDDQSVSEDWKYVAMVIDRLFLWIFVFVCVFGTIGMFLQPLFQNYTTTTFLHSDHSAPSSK
In words: [3H]nicotine radioligand binding, membranes from SH-EP1/human α4β2 clonal cells. The procedure: Preparation of membranes from SH-EP1/human α4β2 clonal cells:
Cell pellets from 40 150 mm culture dishes were pooled, and homogenized by Polytron (Kinematica GmbH, Switzerland) in 20 milliliters of ice-cold preparative buffer. The homogenate was centrifuged at 48,000 g for 20 minutes at 4° C. The resulting pellet was re-suspended in 20 mL of ice-cold preparative buffer and stored at ˜20° C.
On the day of the assay, the frozen membranes were thawed and spun at 48,000×g for 20 min. The supernatant was decanted and discarded. The pellet was resuspended in Dulbecco's phosphate buffered saline (PBS, Life Technologies) pH 7.4 and homogenized with the Polytron for 6 seconds. Protein concentrations were determined using a Pierce BCA Protein Assay Kit, with bovine serum albumin as the standard (Pierce Chemical Company, Rockford, Ill.).
Assay: Membrane preparations (approximately 50 μg for human and 200-300 μg protein for rat α4β2) were incubated in PBS (50 μL and 100 μL respectively) in the presence of competitor compound (0.01 nM to 100 μM) and 5 nM [^3H]nicotine for 2-3 hours on ice. Incubation was terminated by rapid filtration on a multi-manifold tissue harvester (Brandel, Gaithersburg, Md.) using GF/B filters presoaked in 0.33% polyethyleneimine (w/v) to reduce non-specific binding. Tissue was rinsed 3 times in PBS, pH 7.4. Scintillation fluid was added to filters containing the washed tissue and allowed to equilibrate. Filters were then counted to determine radioactivity bound to the membranes by liquid scintillation counting (2200CA Tri-Carb LSC, Packard Instruments, 50% efficiency or Wallac Trilux 1450 MicroBeta, 40% efficiency, Perkin Elmer).
Data were expressed as disintegrations per minute (DPMs). Within each assay, each point had 2-3 replicates. The replicates for each point were averaged and plotted against the log of the drug concentration. IC50, which is the concentration of the compound that produces 50% inhibition of binding, was determined by least squares non-linear regression. Ki values were calculated using the Cheng-Prussof equation (1973): […]
where N is the concentration of [^3H]nicotine and Kd is the affinity of nicotine (3 nM, determined in a separate experiment).

Test [1] deals with mice impaired with scopolamine. In words: Morris Water Maze (MWM) task, scopolamine-impaired. To be noted: 1 mg/kg (5 μmol/kg) p.o., scopolamine 0.75 mg/kg s.c. The test is classed as in vivo. As to the method:
In an animal model of spatial memory, the efficacy of Compound A (7,8,9,10-tetrahydro-6H-azepino[4,5-g]quinoxaline) to attenuate water-maze performances of mice impaired with scopolamine (0.75 mg/kg, s.c.) was evaluated. Following a two-day acclimation period to the maze, mice were trained for 4 days to a platform location in the maze. During the training sessions, each animal was given four trials separated by 5 minutes between each trial. The platform location was constant for each animal. Compound A (1, 3 and 10 mg/kg or 5, 15.1 and 50 μmol/kg, p.o.) was administered 25 minutes prior to each of the four training days. Scopolamine was administered 15 minutes prior to each of the four training days. The probe trial (i.e., no platform present) was conducted on day 5 under drug-free (i.e., water instead of Compound A and saline instead of scopolamine) conditions. In the MWM model, Compound A (1, 3 and 10 mg/kg) was orally administered 25 minutes whereas scopolamine was subcutaneously administered 15 minutes prior to each of the four training days. During training days, each animal was given four trials separated by 5 minutes between trials. The probe trial was conducted on day 5 under drug-free (i.e., water instead of Compound A and saline instead of scopolamine) conditions.

Usually Ki stands for a dissociation constant, usually derived from enzyme kinetics or from competition with a known ligand. High values mean weaker binding, low ones tighter binding. Turning to `c1cnc2cc3c(cc2n1)CCNCC3` [Compound A, 7,8,9,10-tetrahydro-6H-azepino[4,5-g]quinoxaline], the recognition index in the test on normal rats (0.03 mg/kg (0.15 μmol/kg) p.o., 6 h pre-treatment prior to the recall trial, vehicle 52±0.5%) was determined as 64±3%; in the test on normal rats (0.3 mg/kg (1.5 μmol/kg) p.o., 30 minutes before the three trials, vehicle 50±0.5%), 69±5%; in the test with normal rats (0.3 mg/kg (1.5 μmol/kg) p.o., 6 h pre-treatment prior to the recall trial, vehicle 52±0.5%), 68±3%; in the test with normal rats (3 mg/kg (15.1 μmol/kg) p.o., 30 minutes before the three trials, vehicle 50±0.5%) it was 65±3%. In addition, in the test with normal rats (0.15 and 1.51 μmol/kg p.o., recall trial 6 h post administration), the “duration of effect on recognition memory index” value is on record as “facilitated recognition memory index for up to 6 h after dosing”. Besides, the “effect on recognition memory (enhancement of recognition index vs vehicle)” value in the test on normal rats (0.3 and 3 mg/kg p.o., 30 minutes before the three trials) is “facilitated recognition memory”. In addition, at Human α4β2 nAChR subtype, the affinity, expressed as Ki, was 10 nM. Moreover, the “effect on scopolamine-induced cognitive deficits, MWM” value in test [1] was “reverse scopolamine-induced cognitive deficits”.

(Values after US20120053168A1, “FUSED BENZOAZEPINES AS NEURONAL NICOTINIC ACETYLCHOLINE RECEPTOR LIGANDS” (Targacept, Inc., priority 2009, published 2012).)
